# Measured values: PubChem BioAssay (NCI)
#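 Assay format: 96-well plates, 48-hour exposure. At the GI50, growth is halved. TGI: concentration producing complete growth inhibition.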
# Experiments:
# Test in all cases: NCI tumour cell line growth inhibition, 48 h
# IGROV1 ovarian = test system: IGROV1 ovarian
# HCC-2998 colon = test system: HCC-2998 colon
# K-562 leukemia = test system: K-562 leukemia
# SNB-19 CNS = test system: SNB-19 CNS
# HT29 colon = test system: HT29 colon
# BT-549 breast = test system: BT-549 breast
# SK-MEL-2 melanoma = test system: SK-MEL-2 melanoma
# MDA-MB-231 breast = test system: MDA-MB-231 breast
# UO-31 renal = test system: UO-31 renal
# CAKI-1 renal = test system: CAKI-1 renal
# HOP-92 NSCLC = test system: HOP-92 NSCLC
# MCF7 breast = test system: MCF7 breast
# SNB-75 CNS = test system: SNB-75 CNS
# EKVX NSCLC = test system: EKVX NSCLC
# MDA-MB-435 = test system: MDA-MB-435
# RPMI-8226 leukemia = test system: RPMI-8226 leukemia
# OVCAR-3 ovarian = test system: OVCAR-3 ovarian
# DU-145 prostate = test system: DU-145 prostate
# MOLT-4 leukemia = test system: MOLT-4 leukemia
# UACC-62 melanoma = test system: UACC-62 melanoma
# SF-539 CNS = test system: SF-539 CNS
# LOX IMVI melanoma = test system: LOX IMVI melanoma
# COLO 205 colon = test system: COLO 205 colon
# SW-620 colon = test system: SW-620 colon
# A549 NSCLC = test system: A549 NSCLC
# SF-268 CNS = test system: SF-268 CNS
# HS 578T breast = test system: HS 578T breast
# U251 CNS = test system: U251 CNS
# CCRF-CEM leukemia = test system: CCRF-CEM leukemia
# SN12C renal = test system: SN12C renal
# RXF 393 renal = test system: RXF 393 renal
# SK-MEL-28 melanoma = test system: SK-MEL-28 melanoma
# NCI-H23 lung = test system: NCI-H23 lung
# NCI-H460 lung = test system: NCI-H460 lung
# OVCAR-5 ovarian = test system: OVCAR-5 ovarian
# HCT-116 colon = test system: HCT-116 colon
# A498 renal = test system: A498 renal
# HOP-62 NSCLC = test system: HOP-62 NSCLC
# 786-0 renal = test system: 786-0 renal
# SK-MEL-5 melanoma = test system: SK-MEL-5 melanoma
# PC-3 prostate = test system: PC-3 prostate
# OVCAR-4 ovarian = test system: OVCAR-4 ovarian
# NCI/ADR-RES ovarian = test system: NCI/ADR-RES ovarian
# KM12 colon = test system: KM12 colon
# SK-OV-3 ovarian = test system: SK-OV-3 ovarian
# M14 melanoma = test system: M14 melanoma
# OVCAR-8 ovarian = test system: OVCAR-8 ovarian
# UACC-257 melanoma = test system: UACC-257 melanoma
# T-47D breast = test system: T-47D breast
# MALME-3M melanoma = test system: MALME-3M melanoma
# SF-295 CNS = test system: SF-295 CNS
# NCI-H522 lung = test system: NCI-H522 lung
# NCI-H226 lung = test system: NCI-H226 lung
# HCT-15 colon = test system: HCT-15 colon
# TK-10 renal = test system: TK-10 renal
structure (smiles),measurement,setting,value
Cc1c(C)c2ccc(OC/C=C3\CCC(=O)O3)cc2oc1=O,GI50,IGROV1 ovarian,14.2 µM
same,TGI,IGROV1 ovarian,28.9 µM
same,GI50,HCC-2998 colon,18.3 µM
same,TGI,HCC-2998 colon,33 µM
same,GI50,K-562 leukemia,29.1 µM
same,TGI,K-562 leukemia,88.7 µM
same,GI50,SNB-19 CNS,17.2 µM
same,TGI,SNB-19 CNS,35.9 µM
same,GI50,HT29 colon,16.6 µM
same,TGI,HT29 colon,35.3 µM
same,GI50,BT-549 breast,15.2 µM
same,TGI,BT-549 breast,28.9 µM
same,GI50,SK-MEL-2 melanoma,14.2 µM
same,TGI,SK-MEL-2 melanoma,30.7 µM
same,GI50,MDA-MB-231 breast,16 µM
same,TGI,MDA-MB-231 breast,30 µM
same,GI50,UO-31 renal,10.6 µM
same,TGI,UO-31 renal,22.4 µM
same,GI50,CAKI-1 renal,15.3 µM
same,TGI,CAKI-1 renal,30.6 µM
same,GI50,HOP-92 NSCLC,15 µM
same,TGI,HOP-92 NSCLC,31.2 µM
same,GI50,MCF7 breast,11 µM
same,TGI,MCF7 breast,32.5 µM
same,GI50,SNB-75 CNS,12.3 µM
same,TGI,SNB-75 CNS,24.8 µM
same,GI50,EKVX NSCLC,18.7 µM
same,TGI,EKVX NSCLC,40 µM
same,GI50,MDA-MB-435,17.1 µM
same,TGI,MDA-MB-435,34.6 µM
same,GI50,RPMI-8226 leukemia,6.1 µM
same,TGI,RPMI-8226 leukemia,40.9 µM
same,GI50,OVCAR-3 ovarian,15.8 µM
same,TGI,OVCAR-3 ovarian,30.3 µM
same,GI50,DU-145 prostate,12.2 µM
same,TGI,DU-145 prostate,26.1 µM
same,GI50,MOLT-4 leukemia,19.8 µM
same,TGI,MOLT-4 leukemia,> 100 µM
same,GI50,UACC-62 melanoma,14.5 µM
same,TGI,UACC-62 melanoma,28.3 µM
same,GI50,SF-539 CNS,16.1 µM
same,TGI,SF-539 CNS,31.7 µM
same,GI50,LOX IMVI melanoma,15.2 µM
same,TGI,LOX IMVI melanoma,29.4 µM
same,GI50,COLO 205 colon,16.4 µM
same,TGI,COLO 205 colon,48.9 µM
same,GI50,SW-620 colon,18 µM
same,TGI,SW-620 colon,40 µM
same,GI50,A549 NSCLC,16.9 µM
same,TGI,A549 NSCLC,31.9 µM
same,GI50,SF-268 CNS,17 µM
same,TGI,SF-268 CNS,46.1 µM
same,GI50,HS 578T breast,20.2 µM
same,TGI,HS 578T breast,55.9 µM
same,GI50,U251 CNS,15.7 µM
same,TGI,U251 CNS,29.3 µM
same,GI50,CCRF-CEM leukemia,17.4 µM
same,TGI,CCRF-CEM leukemia,58.4 µM
same,GI50,SN12C renal,18.2 µM
same,TGI,SN12C renal,43 µM
same,GI50,RXF 393 renal,14.2 µM
same,TGI,RXF 393 renal,28.2 µM
same,GI50,SK-MEL-28 melanoma,14.3 µM
same,TGI,SK-MEL-28 melanoma,28.1 µM
same,GI50,NCI-H23 lung,15.4 µM
same,TGI,NCI-H23 lung,29.6 µM
same,GI50,NCI-H460 lung,16.4 µM
same,TGI,NCI-H460 lung,35.6 µM
same,GI50,OVCAR-5 ovarian,16.5 µM
same,TGI,OVCAR-5 ovarian,31.1 µM
same,GI50,HCT-116 colon,13.3 µM
same,TGI,HCT-116 colon,26.3 µM
same,GI50,A498 renal,17.9 µM
same,TGI,A498 renal,37.1 µM
same,GI50,HOP-62 NSCLC,15 µM
same,TGI,HOP-62 NSCLC,28.8 µM
same,GI50,786-0 renal,5.35 µM
same,TGI,786-0 renal,20.8 µM
same,GI50,SK-MEL-5 melanoma,17.4 µM
same,TGI,SK-MEL-5 melanoma,32.8 µM
same,GI50,PC-3 prostate,13.4 µM
same,TGI,PC-3 prostate,31 µM
same,GI50,OVCAR-4 ovarian,12.6 µM
same,TGI,OVCAR-4 ovarian,28.9 µM
same,GI50,NCI/ADR-RES ovarian,16.9 µM
same,TGI,NCI/ADR-RES ovarian,35.7 µM
same,GI50,KM12 colon,13.8 µM
same,TGI,KM12 colon,31.3 µM
same,GI50,SK-OV-3 ovarian,26.5 µM
same,TGI,SK-OV-3 ovarian,93.1 µM
same,GI50,M14 melanoma,11.4 µM
same,TGI,M14 melanoma,24.7 µM
same,GI50,OVCAR-8 ovarian,16.5 µM
same,TGI,OVCAR-8 ovarian,34.8 µM
same,GI50,UACC-257 melanoma,15.9 µM
same,TGI,UACC-257 melanoma,31.3 µM
same,GI50,T-47D breast,14.5 µM
same,TGI,T-47D breast,47.8 µM
same,GI50,MALME-3M melanoma,11.9 µM
same,TGI,MALME-3M melanoma,26.7 µM
same,GI50,SF-295 CNS,20.5 µM
same,TGI,SF-295 CNS,45 µM
same,GI50,NCI-H522 lung,10.2 µM
same,TGI,NCI-H522 lung,23.7 µM
same,GI50,NCI-H226 lung,18.9 µM
same,TGI,NCI-H226 lung,40.8 µM
same,GI50,HCT-15 colon,5.4 µM
same,TGI,HCT-15 colon,20.2 µM
same,GI50,TK-10 renal,9.79 µM
same,TGI,TK-10 renal,23 µM
